Results on three compounds are retold here after patent publication US12600725B2 (Memorial Sloan-Kettering Cancer Center, priority 2013, dated 2026).

Test [1] concerns the target T1, Hsp90α (Homo sapiens, UniProt P07900). Nature of the test: Hsp90 FP saturation binding assay of FP probes. Particulars: saturation binding of FP probe; read-out: apparent Kd. How it is done:
(§1) We next determined, in a standard saturation binding experiment that measures ligand binding in the presence of varying concentration of protein, the ability of these ligands as probes for the Hsp90 paralogs (FIGS. 22b-c).
(§2) Hsp90 saturation binding assay. […] The assay window was calculated as the difference between the FP value recorded for the bound fluorescent tracer and the FP value recorded for the free fluorescent tracer (defined as mP-mPf).

For test [2], the target named is T2, Hsp90β (Homo sapiens, UniProt P08238). The test can be described thus: Hsp90 FP saturation binding assay of FP probes. Particulars: saturation binding of FP probe; read-out: apparent Kd. How it is done:
as §1, §2

The target in test [3] is T3, Trap-1 (Homo sapiens, UniProt Q12931).
T3 sequence (Q12931 60-704): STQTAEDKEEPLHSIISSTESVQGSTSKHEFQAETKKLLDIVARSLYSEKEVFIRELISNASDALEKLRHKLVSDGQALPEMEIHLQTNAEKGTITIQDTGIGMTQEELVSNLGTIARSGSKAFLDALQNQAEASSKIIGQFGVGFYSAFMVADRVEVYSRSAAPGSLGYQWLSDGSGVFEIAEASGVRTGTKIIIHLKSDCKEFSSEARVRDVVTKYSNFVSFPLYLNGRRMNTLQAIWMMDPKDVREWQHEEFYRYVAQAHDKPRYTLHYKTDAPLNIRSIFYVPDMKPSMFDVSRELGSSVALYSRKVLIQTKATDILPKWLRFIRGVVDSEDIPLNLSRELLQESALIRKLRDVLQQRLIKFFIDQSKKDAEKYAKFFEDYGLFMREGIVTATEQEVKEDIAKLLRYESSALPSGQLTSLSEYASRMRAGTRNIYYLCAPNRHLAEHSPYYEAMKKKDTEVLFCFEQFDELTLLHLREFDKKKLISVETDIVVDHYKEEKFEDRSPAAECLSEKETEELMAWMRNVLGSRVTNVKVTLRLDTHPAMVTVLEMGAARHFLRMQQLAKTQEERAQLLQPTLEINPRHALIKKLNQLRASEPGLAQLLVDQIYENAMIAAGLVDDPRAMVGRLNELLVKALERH
Nature of the test: Hsp90 FP saturation binding assay of FP probes. Further details: purchased Enzo Life Sciences ADI-SPP-848. Particulars: saturation binding of FP probe; read-out: apparent Kd. How it is done: as §1, §2

Test [4] concerns the target T4, Grp94 (Canis lupus familiaris, UniProt P41148). The test can be described thus: Hsp90 FP saturation binding assay of FP probes. Set-up: other: 43a as FP probe; Grp94; apparent Kd; assay window; other: probe 115a. The settings on record: saturation binding of FP probe. How it is done: as §1, §2
In test [5] the target is T4, Grp94.
The target in the next test is Hsp90 (Homo sapiens, UniProt P08238). The settings on record: McLaughlin et al. 2004; read-out: reported interaction with Hsp90; cited from earlier work.
Test [6] deals with T1, Hsp90α. Particulars: Richter et al. 2008; read-out: reported binding to Hsp90α; cited from earlier work.
The target in test [7] is T2, Hsp90β. Particulars: Richter et al. 2008; read-out: reported binding to Hsp90β; cited from earlier work.
For test [8], the target named is T1, Hsp90α.
The target of test [9] is T2, Hsp90β.
The target in test [10] is T3, Trap-1. Particulars: read-out: Trap-1 IC50; 43a as FP probe.
Test [11] concerns the target T3, Trap-1. Further details: purchased Enzo Life Sciences ADI-SPP-848. Particulars: cited from earlier work.
Setting [12] is: read-out: Grp94 IC50, 43a as FP probe.
Setting [13] is: read-out: binding affinity (FP competition), probe 115a.
Where [14] appears, read: read-out: Hsp90α IC50, 43a as FP probe.
[15] abbreviates: read-out: Hsp90β IC50, 43a as FP probe.

Where two headings read alike, the source gives them in different places.

T4 sequence (P41148 with tags, fused parts or gaps DELINS287-327GGGG): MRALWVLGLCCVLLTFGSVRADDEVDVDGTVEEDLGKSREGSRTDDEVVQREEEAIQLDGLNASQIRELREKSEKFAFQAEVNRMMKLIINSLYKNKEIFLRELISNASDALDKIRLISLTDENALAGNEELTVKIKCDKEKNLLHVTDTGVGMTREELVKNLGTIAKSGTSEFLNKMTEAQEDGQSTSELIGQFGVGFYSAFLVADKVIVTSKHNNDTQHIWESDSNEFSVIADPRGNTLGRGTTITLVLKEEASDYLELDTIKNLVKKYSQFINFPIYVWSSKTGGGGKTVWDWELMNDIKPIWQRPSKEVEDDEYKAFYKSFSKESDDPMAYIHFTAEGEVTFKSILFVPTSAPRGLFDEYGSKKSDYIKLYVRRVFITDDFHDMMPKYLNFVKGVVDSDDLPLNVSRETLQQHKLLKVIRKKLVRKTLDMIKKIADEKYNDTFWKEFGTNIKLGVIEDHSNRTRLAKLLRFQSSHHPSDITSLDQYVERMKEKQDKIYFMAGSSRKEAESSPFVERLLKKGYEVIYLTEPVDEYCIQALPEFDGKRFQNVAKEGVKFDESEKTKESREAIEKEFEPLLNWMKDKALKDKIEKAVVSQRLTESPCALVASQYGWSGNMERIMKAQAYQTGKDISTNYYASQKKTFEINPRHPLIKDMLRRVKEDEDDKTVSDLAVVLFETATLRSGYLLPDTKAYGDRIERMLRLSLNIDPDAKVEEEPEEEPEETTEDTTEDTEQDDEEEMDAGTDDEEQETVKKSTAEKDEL
T2 sequence (P08238 whole entry): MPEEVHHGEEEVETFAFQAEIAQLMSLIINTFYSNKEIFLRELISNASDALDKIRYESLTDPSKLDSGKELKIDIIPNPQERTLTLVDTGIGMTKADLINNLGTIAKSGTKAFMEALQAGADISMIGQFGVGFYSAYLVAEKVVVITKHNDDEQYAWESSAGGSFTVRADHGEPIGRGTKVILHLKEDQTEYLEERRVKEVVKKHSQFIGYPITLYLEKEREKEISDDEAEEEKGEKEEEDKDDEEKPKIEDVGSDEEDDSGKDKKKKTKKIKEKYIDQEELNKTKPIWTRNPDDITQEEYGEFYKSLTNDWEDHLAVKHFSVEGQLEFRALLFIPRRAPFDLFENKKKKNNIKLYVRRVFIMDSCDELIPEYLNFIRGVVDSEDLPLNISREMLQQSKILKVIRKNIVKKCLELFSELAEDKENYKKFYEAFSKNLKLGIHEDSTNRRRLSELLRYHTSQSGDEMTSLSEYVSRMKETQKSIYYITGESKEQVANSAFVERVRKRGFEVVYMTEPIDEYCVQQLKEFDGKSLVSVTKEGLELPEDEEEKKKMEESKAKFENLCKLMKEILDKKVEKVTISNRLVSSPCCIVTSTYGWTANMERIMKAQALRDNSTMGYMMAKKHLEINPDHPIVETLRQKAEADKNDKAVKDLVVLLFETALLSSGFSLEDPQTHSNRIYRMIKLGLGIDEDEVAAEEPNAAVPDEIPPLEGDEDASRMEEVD
Chain of Hsp90 (P08238 whole entry): as above

For the compound `C[C@@H](NCCCn1c(Sc2cc(Cl)cc(Cl)c2)nc2c(N)ncnc21)C1CC1` [Compound 40], the Kd turned out to be 0.0039 µM on Hsp90α [1], 0.0028 µM at Hsp90β [2], 0.0058 µM on Trap-1 [3] and 0.0307 µM at Grp94 [4] (read-out: apparent Kd). Further, the assay window entry on Grp94 [4] is “less than 100 mP”.

As for `Nc1ncnc2c1ncn2[C@@H]1O[C@H](COP(=O)(O)OP(=O)(O)O)[C@@H](O)[C@H]1O` [ADP], the IC50 on Grp94 [5] (setting [12]) stood at 11.4 µM; at Grp94 [5] (setting [13]), 11.4 µM; on Hsp90α [8] (setting [14]) it was 59.3 µM; on Hsp90α [8] (setting [13]), 59 µM; at Hsp90β [9] (setting [15]) it was 42.2 µM; on Hsp90β [9] (setting [13]), 42 µM. On Trap-1 [10], the IC50 was determined as 55.6 µM. The Kd on Hsp90 was 41 µM; on Hsp90α [6], 51 µM; at Hsp90β [7], 34 µM.

Take `Nc1ncnc2c1ncn2[C@@H]1O[C@H](COP(=O)(O)OP(=O)(O)OP(=O)(O)O)[C@@H](O)[C@H]1O` [ATP]: the IC50 came out at 3.24 µM on Grp94 [5] (setting [12]); 3.2 µM at Grp94 [5] (setting [13]); 861 µM on Hsp90α [8] (setting [14]); 894 µM at Hsp90β [9] (setting [15]); 31.3 µM at Trap-1 [10]. In addition, at Hsp90, the Kd is 840 µM. For the same compound, on Trap-1 [11], the “reported greater affinity of Trap-1 than Hsp90” value was “approximately 10 fold”.
